# Like-named read-outs stand apart in the source and are kept apart here.
# Columns and labels:
# E. coli XL-1 blue MRF' = experiment: MIC, broth microdilution, E. coli XL-1 blue MRF'; assay type: cell-based, Escherichia coli; conditions: E. coli XL-1 blue MRF'; for MICvanc/MICi: ratio of MIC of vancomycin and MIC of analogue
# Method: (§1) The minimum inhibitory concentration (MIC) was determined using the broth microdilution method according to the antimicrobial susceptibility testing standards of the clinical and laboratory standards institute ([Clinical and Laboratory Standards Institute [CLSI], 2012]). Ultrapure water and non-inoculated broth were used as controls. In one case, a final concentration of 10 μM vancomycin was included with the vancomycin analog or control antibiotic.
# E. faecalis VRE 6 = experiment: MIC, broth microdilution, vancomycin-resistant E. faecalis VRE 6 (VanA); assay type: cell-based, Enterococcus faecalis; conditions: for MICvanc/MICi / MIC-fold improvement vs. vancomycin: ratio of MIC of vancomycin and MIC of analogue; for MIC: read-out: MIC; for MIC-fold improvement vs. vancomycin: VRE 6
# Method in brief: (§2)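 Read-out: lowest concentration inhibiting growth in broth microdilution, CLSI method. Water and broth-only wells acted as controls; in one case 10 μM vancomycin (final) was present with the compound.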
# E. faecalis VSE 1 = experiment: MIC, broth microdilution, vancomycin-sensitive E. faecalis (VSE 1); assay type: cell-based, Enterococcus faecalis; conditions: for MICvanc/MICi / MIC-fold improvement vs. vancomycin: ratio of MIC of vancomycin and MIC of analogue; for MIC: read-out: MIC; for MIC-fold improvement vs. vancomycin: VSE 1
# Method in brief: as §2
# E. faecalis VRE 29 = experiment: MIC, broth microdilution, vancomycin-resistant E. faecalis VRE 29 (VanA); assay type: cell-based, Enterococcus faecalis; conditions: for MIC: Enterococcus faecalis VRE 29 (vancomycin-resistant), read-out: MIC; for MIC-fold improvement vs. vancomycin: VRE 29, ratio of MIC of vancomycin and MIC of analogue
# Method in brief: as §2
# [1] = system: S. aureus VSSA (ATCC 6538); experiment: MIC, broth microdilution, vancomycin-sensitive S. aureus (VSSA/MSSA, ATCC 6538); assay type: cell-based, Staphylococcus aureus; conditions: for MIC: Staphylococcus aureus VSSA, read-out: MIC; for MIC-fold improvement vs. vancomycin: VSSA, ratio of MIC of vancomycin and MIC of analogue
# Method in brief: as §2
# MRSA KS89 = experiment: MIC, broth microdilution, MRSA KS89; assay type: cell-based, Staphylococcus aureus; conditions: for MIC-fold improvement vs. vancomycin: MRSA KS8, ratio of MIC of vancomycin and MIC of analogue; for MIC: Staphylococcus aureus MRSA KS8, read-out: MIC
# Method in brief: as §2
# MRSA KS6 = experiment: MIC, broth microdilution, MRSA KS6; assay type: cell-based, Staphylococcus aureus; conditions: for MIC-fold improvement vs. vancomycin: MRSA KS6, ratio of MIC of vancomycin and MIC of analogue; for MIC: Staphylococcus aureus MRSA KS6, read-out: MIC
# Method in brief: as §2
# S. aureus VISA/HIP5827 = experiment: MIC, broth microdilution, vancomycin-intermediate S. aureus VISA HIP5827; assay type: cell-based, Staphylococcus aureus; conditions: for MIC: Staphylococcus aureus VISA/HIP5827, read-out: MIC; for MIC-fold improvement vs. vancomycin: VISA/HIP5827, ratio of MIC of vancomycin and MIC of analogue
# Method in brief: as §2
# [2] = system: human cervix carcinoma (HeLa) cells; experiment: Cytostatic activity, HeLa cell proliferation; assay type: cell-based; conditions: mean ± SD of three experiments; highest concentration tested 250 µM; 4 days; read-out: Toxicity (IC50) HeLa
# Method in brief: (§3)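 Coulter counter cell counts after 37°C culture with compound; IC50 = concentration giving 50% growth inhibition vs negative control. Incubation: L1210 2 d, CEM 3 d, HeLa 4 d. Suspension density before mixing with an equal volume of dilution: 300,000–500,000 cells/mL.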
# [3] = system: human T-lymphocyte (CEM) cells; experiment: Cytostatic activity, CEM cell proliferation; assay type: cell-based; conditions: mean ± SD of three experiments; highest concentration tested 250 µM; 3 days; read-out: Toxicity (IC50) CEM
# Method in brief: as §3
# E. faecalis VRE 37 = experiment: MIC, broth microdilution, vancomycin-resistant E. faecalis VRE 37 (VanA); assay type: cell-based, Enterococcus faecalis; conditions: for MIC: Enterococcus faecalis VRE 37 (vancomycin-resistant), read-out: MIC; for MIC-fold improvement vs. vancomycin: VRE 37, ratio of MIC of vancomycin and MIC of analogue
# Method in brief: as §2
# E. faecalis VRE 53 = experiment: MIC, broth microdilution, vancomycin-resistant E. faecalis VRE 53 (VanA); assay type: cell-based, Enterococcus faecalis; conditions: for MICvanc/MICi / MIC-fold improvement vs. vancomycin: ratio of MIC of vancomycin and MIC of analogue; for MIC: read-out: MIC; for MIC-fold improvement vs. vancomycin: VRE 53
# Method in brief: as §2
# S. aureus VRSA = experiment: MIC, broth microdilution, vancomycin-resistant S. aureus (VRSA); assay type: cell-based, Staphylococcus aureus; conditions: for MIC: Staphylococcus aureus VRSA, read-out: MIC; for MIC-fold improvement vs. vancomycin: VRSA, ratio of MIC of vancomycin and MIC of analogue
# Method in brief: as §2
# [4] = system: Murine leukemia (L1210) cells; experiment: Cytostatic activity, L1210 cell proliferation; assay type: cell-based; conditions: mean ± SD of three experiments; highest concentration tested 250 µM; 2 days; read-out: Toxicity (IC50) L1210
# Method in brief: as §3
# MRSA KS1 = experiment: MIC, broth microdilution, MRSA KS1; assay type: cell-based, Staphylococcus aureus; conditions: for MIC: Staphylococcus aureus MRSA KS1, read-out: MIC; for MIC-fold improvement vs. vancomycin: MRSA KS1, ratio of MIC of vancomycin and MIC of analogue
# Method in brief: as §2
# [5] = system: L1210, CEM and HeLa cell lines; experiment: Cytostatic activity, average or summary over L1210, CEM and HeLa; assay type: cell-based
# Method in brief: as §3
# MRSA KS2 = experiment: MIC, broth microdilution, MRSA KS2; assay type: cell-based, Staphylococcus aureus; conditions: for MIC: Staphylococcus aureus MRSA KS2, read-out: MIC; for MIC-fold improvement vs. vancomycin: MRSA KS2, ratio of MIC of vancomycin and MIC of analogue
# Method in brief: as §2
# B. subtilis PSB3 = experiment: MIC, broth microdilution, B. subtilis PSB3; assay type: cell-based, Bacillus subtilis; conditions: for MICvanc/MICi: ratio of MIC of vancomycin and MIC of analogue
# Method: as §1
# [6] = Enterococcus faecalis VRE 6 (vancomycin-resistant)
# [7] = Enterococcus faecalis VSE 1 (vancomycin-sensitive)
# [8] = Enterococcus faecalis VRE 53 (vancomycin-resistant)
# [9] = average of L1210, CEM and HeLa, read-out: Toxicity (IC50) Average
# [10] = summary over the three cell lines, read-out: IC50 (L1210, CEM, HeLa), depending on the cell line used
Compound,MIC (E. coli XL-1 blue MRF'),MICvanc/MICi (E. coli XL-1 blue MRF'),MICvanc/MICi (E. faecalis VRE 6; E. faecalis VRE 6),MIC (E. faecalis VRE 6; E. faecalis VRE 6),MIC (E. faecalis VRE 6; [6]),MICvanc/MICi (E. faecalis VSE 1; E. faecalis VSE 1),MIC (E. faecalis VSE 1; E. faecalis VSE 1),MIC (E. faecalis VSE 1; [7]),MIC-fold improvement vs. vancomycin (E. faecalis VSE 1),MIC (E. faecalis VRE 29),MIC-fold improvement vs. vancomycin (E. faecalis VRE 29),MIC [1],MIC-fold improvement vs. vancomycin (MRSA KS89),MIC (MRSA KS89),MIC-fold improvement vs. vancomycin (MRSA KS6),MIC (MRSA KS6),MIC (S. aureus VISA/HIP5827),MIC-fold improvement vs. vancomycin (S. aureus VISA/HIP5827),IC50 [2],IC50 [3],further results
C#CCCC(=O)NCCCNC(=O)C1NC(=O)C2NC(=O)C(NC(=O)C3NC(=O)C(CC(N)=O)NC(=O)C(NC(=O)C(CC(C)C)NC)C(O)c4ccc(c(Cl)c4)Oc4cc3cc(c4OC3OC(CO)C(O)C(O)C3OC3CC(C)(N)C(O)C(C)O3)Oc3ccc(cc3Cl)C2O)c2ccc(O)c(c2)-c2c(O)cc(O)cc21 (stereo not shown) [Vanc-B],25 µM,4,4,50 µM,50 µM,2,0.78 µM,0.78 µM,2,100 µM,4,0.78 µM,1,1.56 µM,0.5,1.56 µM,3.13 µM,2,> 250 µM,> 250 µM,"MIC-fold improvement vs. vancomycin (E. faecalis VRE 6): 4; MIC (E. faecalis VRE 37): 100 µM; MIC-fold improvement vs. vancomycin (E. faecalis VRE 37): 8; MICvanc/MICi (E. faecalis VRE 53; E. faecalis VRE 53): 32; MIC (E. faecalis VRE 53; E. faecalis VRE 53): 12.5 µM; MIC (E. faecalis VRE 53; [8]): 12.5 µM; MIC-fold improvement vs. vancomycin (E. faecalis VRE 53): 32; MIC (S. aureus VRSA): 12.5 µM; MIC-fold improvement vs. vancomycin (S. aureus VRSA): 8; IC50 [4]: > 250 µM; MIC (MRSA KS1): 0.78 µM; IC50 [5, 9]: > 250 µM; IC50 [5, 10]: > 250 µM; MIC (MRSA KS2): 0.78 µM; MIC (B. subtilis PSB3): 0.20 µM; MICvanc/MICi (B. subtilis PSB3): 2"
C#Cc1ccc(/C=C/C(=O)NCCNC(=O)[C@H]2NC(=O)[C@H]3NC(=O)[C@H](NC(=O)[C@@H]4NC(=O)[C@H](CC(N)=O)NC(=O)[C@H](NC(=O)[C@@H](CC(C)C)NC)[C@H](O)c5ccc(c(Cl)c5)Oc5cc4cc(c5O[C@@H]4O[C@H](CO)[C@@H](O)[C@H](O)[C@H]4O[C@H]4C[C@](C)(N)[C@H](O)[C@H](C)O4)Oc4ccc(cc4Cl)[C@H]3O)c3ccc(O)c(c3)-c3c(O)cc(O)cc32)cc1 [Vanc-Q],12.5 µM,8,32,6.25 µM,6.25 µM,16,0.10 µM,0.10 µM,16,25 µM,16,0.20 µM,1,0.78 µM,1,0.78 µM,1.56 µM,4,> 250 µM,> 250 µM,"MIC-fold improvement vs. vancomycin (E. faecalis VRE 6): 32; MIC-fold improvement vs. vancomycin [1]: 4; MIC (E. faecalis VRE 37): 50 µM; MIC-fold improvement vs. vancomycin (E. faecalis VRE 37): 16; MICvanc/MICi (E. faecalis VRE 53; E. faecalis VRE 53): 64; MIC (E. faecalis VRE 53; E. faecalis VRE 53): 6.25 µM; MIC (E. faecalis VRE 53; [8]): 6.25 µM; MIC-fold improvement vs. vancomycin (E. faecalis VRE 53): 64; MIC (S. aureus VRSA): 12.5 µM; MIC-fold improvement vs. vancomycin (S. aureus VRSA): 8; IC50 [4]: > 250 µM; MIC-fold improvement vs. vancomycin (MRSA KS1): 2; MIC (MRSA KS1): 0.39 µM; IC50 [5, 9]: > 250 µM; IC50 [5, 10]: > 250 µM; MIC-fold improvement vs. vancomycin (MRSA KS2): 0.5; MIC (MRSA KS2): 1.56 µM; MIC (B. subtilis PSB3): 0.39 µM; MICvanc/MICi (B. subtilis PSB3): 1"
C#Cc1ccc(C=Cc2ccc(NC(=O)CNC(=O)C3NC(=O)C4NC(=O)C(NC(=O)C5NC(=O)C(CC(N)=O)NC(=O)C(NC(=O)C(CC(C)C)NC)C(O)c6ccc(c(Cl)c6)Oc6cc5cc(c6OC5OC(CO)C(O)C(O)C5OC5CC(C)(N)C(O)C(C)O5)Oc5ccc(cc5Cl)C4O)c4ccc(O)c(c4)-c4c(O)cc(O)cc43)cc2)cc1 (stereo not shown) [Vanc-R],100 µM,1,64,3.13 µM,3.13 µM,8,0.20 µM,0.19 µM,8,1.56 µM,256,0.10 µM,2,0.39 µM,2,0.39 µM,0.78 µM,8,15 ± 1 µM,1.4 ± 0.6 µM,"MIC-fold improvement vs. vancomycin [1]: 8; MIC (E. faecalis VRE 37): 12.5 µM; MIC-fold improvement vs. vancomycin (E. faecalis VRE 37): 64; MICvanc/MICi (E. faecalis VRE 53; E. faecalis VRE 53): 64; MIC (E. faecalis VRE 53; E. faecalis VRE 53): 6.25 µM; MIC (E. faecalis VRE 53; [8]): 6.25 µM; MIC-fold improvement vs. vancomycin (E. faecalis VRE 53): 64; MIC (S. aureus VRSA): 1.56 µM; MIC-fold improvement vs. vancomycin (S. aureus VRSA): 64; IC50 [4]: 5.7 ± 0.7 µM; MIC-fold improvement vs. vancomycin (MRSA KS1): 1; MIC (MRSA KS1): 0.78 µM; IC50 [5, 9]: 7 µM; MIC-fold improvement vs. vancomycin (MRSA KS2): 2; MIC (MRSA KS2): 0.39 µM; MIC (B. subtilis PSB3): 0.78 µM; MICvanc/MICi (B. subtilis PSB3): 0.5"
